Test results taken from patent publication US8895733B2 (Novartis AG, priority 2010, dated 2014).

Experiments:
Type in all cases: cell-based
Nav 1.7 [1] = molecular target: T1, Nav 1.7 (Homo sapiens, UniProt Q15858); test: Whole-cell voltage clamp electrophysiology, manual patch clamp (marker b in Table of Examples); conditions: read-out: Nav 1.7 activity
T1 construct: expressed in transfected cells
From the text: (§1) a.IonWork Quattro data, b=Manual patch clamp data, c=Automated patch clamp data M=Method
(§2) Whole-Cell Voltage Clamp Electrophysiology Assay
(§3) Patch-clamp electrophysiology is considered the gold standard technique for investigation of ion channel function and pharmacology. Using this method, sodium channel currents can be measured in cells, which stably (or transiently) express the sodium channel subtype of interest. Application of compounds during such experiments provides a functional measure of the activity and potency of compounds affecting the ion channel of interest.
(§4) Electrophysiological studies can also be performed using the whole cell configuration of the standard manual patch clamp technique as described in the literature (e.g. Pflugers Arch., 1981, 391(2), 85-100). In this assay, cells that express the voltage-gated sodium channel protein of interest are exposed to the drugs by conventional microperfusion systems, or by a home-built perfusion system. A suitable voltage stimulus protocol is used to activate the voltage-gated sodium channels.
(§5) A suitable voltage stimulus protocol is used to activate voltage-gated sodium channel proteins of interest. A typical stimulus protocol may consist of sweeps of sequential voltage pulses starting from a holding potential (i.e. −65 mV), to a more positive and depolarising test pulse potential (i.e. −10 mV) and finally to a more negative and hyperpolarising potential (i.e. −100 mV). According to the biophysics of the voltage-gated ion channel of interest and interest in channel configuration the voltages and durations of the pulses as well as the overall frequency of sweeps applied might vary. Accordingly, a stimulus protocol was designed to assess compounds due to their potential to block NaV1.7 channels primarily in inactivated state. Selectivity over other voltage-gated sodium channel members was assessed by protocols that reflect the native function of the channels (i.e. heart rate or firing of neurons).
(§6) Electrophysiological studies can also be performed using the whole cell configuration of the standard manual patch clamp technique as described in the literature (e.g. Pflugers Arch., 1981, 391(2), 85-100). In this assay, cells that express the human voltage-gated sodium channel protein of interest are exposed to the drugs by conventional microperfusion systems, or by a home-built perfusion system. A suitable voltage stimulus protocol is used to activate the voltage-gated sodium channels. A suitable voltage stimulus protocol may consist of sequential voltage pulses from a holding potential, each first hyperpolarizing the cell, then depolarizing the channels for a brief period. A particularly suitable holding potential may be a voltage allowing a fraction of channels to remain in an inactivated state, like −60 mV. A suitable hyperpolarizing voltage and duration may be −120 mV for 100 ms, and depolarization voltage and duration may be −20 mV for 25 ms, and a suitable frequency of pulses may be 0.1 Hz, but may also have other parameters. Accordingly, a stimulus protocol was designed to assess compounds due to their potential to block NaV1.7 channels primarily in inactivated state. Selectivity over other voltage-gated sodium channel members was assessed by protocols that reflect the native function of the channels (i.e. heart rate or firing of neurons).

Nav1.5 = molecular target: T2, Nav1.5 (Homo sapiens, UniProt Q14524); test: Inhibition of Nav1.5 as measured using manual patch clamp
T2 construct: expressed in transfected cells
From the text: as §3, §4, §5, §6
Inhibition of Nav1.5 by Compounds of formula (I) as measured using manual patch clamp

Nav 1.7 [2] = molecular target: T1, Nav 1.7; test: Whole-cell voltage clamp electrophysiology, IonWorks Quattro (marker a in Table of Examples); conditions: marker a: IonWork Quattro data; read-out: Nav 1.7 activity
From the text: as §1, §2, §3
Electrophysiological studies can be performed using automated or manual patch-clamp techniques. Automated patch-clamp instruments suitable for this work include the Ion Works HT (MDS), Ion Works Quattro (MDS), PatchLiner (Nanion technologies), Port-A-Patch (Nanion technologies), QPatch (Sophion) or any other suitable platform.
For recording in automated patch-clamp instruments, cells expressing the voltage-gated sodium channel subtype of interest are dispensed in appropriate chips (plates with more than one recording chambers each containing one or more apertures to generate whole-cell patches), as provided by the manufacturer. Typically, the whole-cell perforated patch configuration is used for probing the pharmacology of compounds in automated patch-clamp electrophysiology on sodium channels. Extracellular and intracellular buffers for such experiments are composed according to the literature, or according to the instructions provided by the manufacturer of the instruments. Test solutions, which contain the compounds to be tested, are applied to the cells expressing the sodium channel of interest by a pipetting system, typically integrated into the robots.
as §5

Nav 1.7 [3] = molecular target: T1, Nav 1.7; test: Whole-cell voltage clamp electrophysiology, automated patch clamp (marker c in Table of Examples); conditions: marker c: Automated patch clamp data; read-out: Nav 1.7 activity
Outline: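 Human NaV1.7 currents were recorded by whole-cell automated patch clamp, on IonWorks Quattro or another automated platform, typically in perforated-patch configuration. The stimulus protocol was designed to probe block mainly of the inactivated state, with a typical sweep stepping from about −65 mV holding to −10 mV, then −100 mV.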

[4] = marker b: Manual patch clamp data
[5] = marker b = Manual patch clamp data

T2 sequence (Q14524 whole entry): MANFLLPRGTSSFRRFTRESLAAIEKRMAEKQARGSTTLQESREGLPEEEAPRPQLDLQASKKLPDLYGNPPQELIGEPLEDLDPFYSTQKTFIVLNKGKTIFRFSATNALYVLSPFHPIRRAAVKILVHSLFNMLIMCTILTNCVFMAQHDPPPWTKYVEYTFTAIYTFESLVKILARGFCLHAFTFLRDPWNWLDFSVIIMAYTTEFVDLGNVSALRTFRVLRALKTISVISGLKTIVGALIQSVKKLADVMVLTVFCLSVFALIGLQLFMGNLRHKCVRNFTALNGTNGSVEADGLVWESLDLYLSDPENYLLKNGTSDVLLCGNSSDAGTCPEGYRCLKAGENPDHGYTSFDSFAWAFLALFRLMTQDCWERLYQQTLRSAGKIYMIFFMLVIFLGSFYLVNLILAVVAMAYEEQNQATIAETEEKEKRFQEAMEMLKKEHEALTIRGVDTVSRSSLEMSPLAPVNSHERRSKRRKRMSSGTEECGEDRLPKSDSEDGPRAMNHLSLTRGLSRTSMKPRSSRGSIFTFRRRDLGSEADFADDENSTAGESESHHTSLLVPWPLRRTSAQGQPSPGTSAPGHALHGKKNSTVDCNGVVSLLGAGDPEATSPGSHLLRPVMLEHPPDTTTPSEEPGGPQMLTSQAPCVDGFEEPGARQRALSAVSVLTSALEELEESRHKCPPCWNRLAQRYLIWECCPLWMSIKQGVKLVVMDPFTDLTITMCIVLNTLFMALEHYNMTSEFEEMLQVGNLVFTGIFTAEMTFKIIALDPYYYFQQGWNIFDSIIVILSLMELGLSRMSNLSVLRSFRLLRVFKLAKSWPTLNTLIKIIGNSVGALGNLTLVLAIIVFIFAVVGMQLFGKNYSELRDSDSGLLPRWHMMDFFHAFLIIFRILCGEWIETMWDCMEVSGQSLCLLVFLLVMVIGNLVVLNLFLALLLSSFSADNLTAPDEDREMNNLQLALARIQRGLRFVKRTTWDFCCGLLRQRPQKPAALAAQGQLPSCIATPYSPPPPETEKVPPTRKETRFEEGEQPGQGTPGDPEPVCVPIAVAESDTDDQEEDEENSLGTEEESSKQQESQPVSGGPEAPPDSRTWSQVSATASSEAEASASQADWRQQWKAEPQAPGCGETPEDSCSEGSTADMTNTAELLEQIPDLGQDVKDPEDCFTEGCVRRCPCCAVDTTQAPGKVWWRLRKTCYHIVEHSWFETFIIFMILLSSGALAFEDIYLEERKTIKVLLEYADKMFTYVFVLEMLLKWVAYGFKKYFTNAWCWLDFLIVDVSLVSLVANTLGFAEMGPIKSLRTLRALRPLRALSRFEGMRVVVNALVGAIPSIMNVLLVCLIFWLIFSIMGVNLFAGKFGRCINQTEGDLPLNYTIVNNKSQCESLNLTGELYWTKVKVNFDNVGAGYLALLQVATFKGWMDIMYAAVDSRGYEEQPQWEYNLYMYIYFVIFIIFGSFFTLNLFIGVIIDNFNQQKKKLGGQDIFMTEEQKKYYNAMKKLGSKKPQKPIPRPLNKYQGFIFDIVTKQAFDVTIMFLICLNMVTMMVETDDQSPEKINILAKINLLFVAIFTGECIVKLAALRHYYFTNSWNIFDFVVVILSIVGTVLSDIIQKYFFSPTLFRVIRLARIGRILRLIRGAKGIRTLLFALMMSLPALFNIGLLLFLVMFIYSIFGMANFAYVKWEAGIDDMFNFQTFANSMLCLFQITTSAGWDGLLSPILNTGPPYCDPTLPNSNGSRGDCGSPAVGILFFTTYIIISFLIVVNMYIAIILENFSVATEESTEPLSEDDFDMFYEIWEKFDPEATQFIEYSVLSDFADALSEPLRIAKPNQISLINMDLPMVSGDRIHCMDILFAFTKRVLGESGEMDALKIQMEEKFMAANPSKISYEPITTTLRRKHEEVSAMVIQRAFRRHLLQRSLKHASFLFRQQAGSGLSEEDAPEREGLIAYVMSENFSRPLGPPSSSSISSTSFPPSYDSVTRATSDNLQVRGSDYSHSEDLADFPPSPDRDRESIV
T1 sequence (Q15858 whole entry): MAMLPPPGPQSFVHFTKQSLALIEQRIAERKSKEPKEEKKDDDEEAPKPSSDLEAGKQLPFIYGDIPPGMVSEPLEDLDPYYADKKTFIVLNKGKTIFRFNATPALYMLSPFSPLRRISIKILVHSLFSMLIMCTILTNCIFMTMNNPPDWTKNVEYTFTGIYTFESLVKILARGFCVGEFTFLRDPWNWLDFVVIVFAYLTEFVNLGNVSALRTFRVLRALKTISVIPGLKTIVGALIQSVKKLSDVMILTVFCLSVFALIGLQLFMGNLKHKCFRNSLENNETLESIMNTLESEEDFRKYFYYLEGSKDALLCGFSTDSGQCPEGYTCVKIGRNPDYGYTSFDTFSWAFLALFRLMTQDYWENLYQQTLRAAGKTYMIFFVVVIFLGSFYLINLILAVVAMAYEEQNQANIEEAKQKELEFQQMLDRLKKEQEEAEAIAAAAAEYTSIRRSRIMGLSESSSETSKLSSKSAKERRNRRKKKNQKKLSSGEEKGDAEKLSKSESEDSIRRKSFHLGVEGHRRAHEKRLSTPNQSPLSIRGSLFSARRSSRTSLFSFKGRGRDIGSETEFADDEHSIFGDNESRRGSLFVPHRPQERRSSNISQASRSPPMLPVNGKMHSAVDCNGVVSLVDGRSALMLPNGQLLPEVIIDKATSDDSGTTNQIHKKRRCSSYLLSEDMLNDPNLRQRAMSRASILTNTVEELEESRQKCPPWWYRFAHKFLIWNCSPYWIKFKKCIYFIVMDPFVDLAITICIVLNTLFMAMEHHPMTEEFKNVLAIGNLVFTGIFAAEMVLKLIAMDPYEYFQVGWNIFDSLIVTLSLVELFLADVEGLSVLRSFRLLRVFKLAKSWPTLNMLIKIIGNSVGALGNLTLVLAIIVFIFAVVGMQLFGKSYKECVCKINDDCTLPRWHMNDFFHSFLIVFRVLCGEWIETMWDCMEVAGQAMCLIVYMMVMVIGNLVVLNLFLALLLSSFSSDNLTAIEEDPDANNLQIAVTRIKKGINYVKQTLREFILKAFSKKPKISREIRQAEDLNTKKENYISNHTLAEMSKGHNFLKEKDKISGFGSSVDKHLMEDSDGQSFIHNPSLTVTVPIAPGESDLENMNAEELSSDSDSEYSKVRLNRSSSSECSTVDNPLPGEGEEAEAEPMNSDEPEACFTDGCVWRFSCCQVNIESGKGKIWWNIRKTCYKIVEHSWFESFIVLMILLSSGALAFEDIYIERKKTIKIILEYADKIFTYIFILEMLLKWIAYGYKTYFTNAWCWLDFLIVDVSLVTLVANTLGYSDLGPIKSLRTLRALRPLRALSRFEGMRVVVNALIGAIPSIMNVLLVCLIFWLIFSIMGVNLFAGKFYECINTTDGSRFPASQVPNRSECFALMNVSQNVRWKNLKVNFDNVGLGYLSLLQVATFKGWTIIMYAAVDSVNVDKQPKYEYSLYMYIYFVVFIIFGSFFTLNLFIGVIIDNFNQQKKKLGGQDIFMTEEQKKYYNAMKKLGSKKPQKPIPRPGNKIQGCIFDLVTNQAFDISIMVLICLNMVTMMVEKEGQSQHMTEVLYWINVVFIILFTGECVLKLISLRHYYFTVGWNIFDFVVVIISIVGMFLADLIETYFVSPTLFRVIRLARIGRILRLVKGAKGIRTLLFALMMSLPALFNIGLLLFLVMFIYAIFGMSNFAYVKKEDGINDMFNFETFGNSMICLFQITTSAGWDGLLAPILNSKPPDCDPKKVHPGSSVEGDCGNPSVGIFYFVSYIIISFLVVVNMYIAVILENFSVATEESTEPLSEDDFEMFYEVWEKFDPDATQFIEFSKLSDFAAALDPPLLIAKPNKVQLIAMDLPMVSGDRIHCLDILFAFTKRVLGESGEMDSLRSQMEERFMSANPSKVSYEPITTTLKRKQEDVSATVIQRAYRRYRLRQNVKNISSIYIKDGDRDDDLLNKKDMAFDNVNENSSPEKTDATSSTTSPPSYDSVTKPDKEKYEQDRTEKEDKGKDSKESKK

| SMILES | IC50 (Nav1.5) | IC50 (Nav 1.7 [1]; [5]) | also measured |
| --- | --- | --- | --- |
| CN(c1ccccc1)c1nc(N)nc(-c2noc(-c3ccco3)n2)n1 [Example 1, 6-(5-Furan-2-yl-[1,2,4]oxadiazol-3-yl)-N-methyl-N-phenyl-[1,3,5]triazine-2,4-diamine] | 2430 nM |  | IC50 (Nav 1.7 [1]; [4]): 212 nM |
| CN(c1cccc(Cl)c1)c1nc(N)nc(-c2noc(-c3ccco3)n2)n1 [Example 7, 6-(5-Furan-2-yl-[1,2,4]oxadiazol-3-yl)-N-methyl-N-(3-chlorophenyl)-[1,3,5]triazine-2,4-diamine] | 847 nM |  | IC50 (Nav 1.7 [1]; [4]): 187 nM |
| CN(c1ccc(F)cc1)c1nc(N)nc(-c2noc(-c3ccco3)n2)n1 [Example 16, N-(4-Fluoro-phenyl)-6-(5-furan-2-yl-[1,2,4]oxadiazol-3-yl)-N-methyl-[1,3,5]triazine-2,4-diamine] | 1050 nM |  | IC50 (Nav 1.7 [1]; [4]): 264 nM |
| CN(c1nc(N)nc(-c2noc(-c3ccco3)n2)n1)c1ccccc1Cl [Example 17, N-(2-Chloro-phenyl)-6-(5-furan-2-yl-[1,2,4]oxadiazol-3-yl)-N-methyl-[1,3,5]triazine-2,4-diamine] |  |  | IC50 (Nav 1.7 [2]): < 5000 nM |
| Cc1ccccc1N(C)c1nc(N)nc(-c2noc(-c3ccco3)n2)n1 [Example 18, 6-(5-Furan-2-yl-[1,2,4]oxadiazol-3-yl)-N-methyl-N-o-tolyl-[1,3,5]triazine-2,4-diamine] |  |  | IC50 (Nav 1.7 [2]): < 5000 nM |
| Cc1ccc(-c2nc(-c3nc(N)nc(N(C)c4ccccc4)n3)no2)o1 [Example 19, N-Methyl-6-[5-(5-methyl-furan-2-yl)-[1,2,4]oxadiazol-3-yl]-N-phenyl-[1,3,5]triazine-2,4-diamine] |  |  | IC50 (Nav 1.7 [2]): 61 nM |
| CN(Cc1ccccc1)c1nc(N)nc(-c2noc(-c3ccco3)n2)n1 [Example 20, N-Benzyl-6-(5-furan-2-yl-[1,2,4]oxadiazol-3-yl)-N-methyl-[1,3,5]triazine-2,4-diamine] |  |  | IC50 (Nav 1.7 [2]): < 3000 nM |
| CCN(c1ccccc1)c1nc(N)nc(-c2noc(-c3ccco3)n2)n1 [Example 21, N-Ethyl-6-(5-furan-2-yl-[1,2,4]oxadiazol-3-yl)-N-phenyl-[1,3,5]triazine-2,4-diamine] | 2060 nM |  | IC50 (Nav 1.7 [1]; [4]): 249 nM |
| Nc1nc(-c2noc(-c3ccco3)n2)nc(N2CCc3ccccc32)n1 [Example 22, 4-(2,3-Dihydro-indol-1-yl)-6-(5-furan-2-yl-[1,2,4]oxadiazol-3-yl)-[1,3,5]triazin-2-ylamine] |  |  | IC50 (Nav 1.7 [2]): < 1000 nM |
| COc1cccc(-c2nc(-c3nc(N)nc(N(C)c4ccccc4)n3)no2)c1 [Example 24, 6-[5-(3-Methoxy-phenyl)-[1,2,4]oxadiazol-3-yl]-N-methyl-N-phenyl-[1,3,5]triazine-2,4-diamine] |  |  | IC50 (Nav 1.7 [2]): < 500 nM |
| Nc1nc(-c2noc(-c3ccco3)n2)nc(N(CC(F)(F)F)c2ccccc2)n1 [Example 68, 6-(5-Furan-2-yl-[1,2,4]oxadiazol-3-yl)-N-phenyl-N-(2,2,2-trifluoro-ethyl)-[1,3,5]triazine-2,4-diamine] | > 10000 nM |  | IC50 (Nav 1.7 [3]): 225 nM |
| CN(c1cccc(F)c1)c1nc(N)nc(-c2noc(-c3ccccc3Cl)n2)n1 [Example 86, 6-[5-(2-Chloro-phenyl)-[1,2,4]oxadiazol-3-yl]-N-(3-fluoro-phenyl)-N-methyl-[1,3,5]triazine-2,4-diamine] | 300 nM |  | IC50 (Nav 1.7 [1]; [4]): 126 nM |
| CCN(c1ccccc1)c1nc(N)nc(-c2noc(-c3ccccc3OC)n2)n1 [Example 95, N-Ethyl-6-[5-(2-methoxy-phenyl)-[1,2,4]oxadiazol-3-yl]-N-phenyl-[1,3,5]triazine-2,4-diamine] | 3700 nM |  | IC50 (Nav 1.7 [1]; [4]): 46 nM |
| COc1ccccc1-c1nc(-c2nc(N)nc(N(C)c3cccc(Cl)c3)n2)no1 [Example 100, N-(3-Chloro-phenyl)-6-[5-(2-methoxy-phenyl)-[1,2,4]oxadiazol-3-yl]-N-methyl-[1,3,5]triazine-2,4-diamine] | 126 nM |  | IC50 (Nav 1.7 [3]): 118 nM |
| CN(c1nc(N)nc(-c2noc(-c3ccco3)n2)n1)c1cc(Cl)ccc1F [Example 103, N-(5-Chloro-2-fluoro-phenyl)-6-(5-furan-2-yl-[1,2,4]oxadiazol-3-yl)-N-methyl-[1,3,5]triazine-2,4-diamine] | 215 nM |  | IC50 (Nav 1.7 [1]; [4]): 42 nM |
| COc1ccc(-c2nc(-c3nc(N)nc(N(C)c4ccccc4)n3)no2)nc1 [Example 118, 6-[5-(5-Methoxy-pyridin-2-yl)-[1,2,4]oxadiazol-3-yl]-N-methyl-N-phenyl-[1,3,5]triazine-2,4-diamine] | 3340 nM |  | IC50 (Nav 1.7 [3]): 294 nM |
| COc1cccnc1-c1nc(-c2nc(N)nc(N(C)c3ccccc3)n2)no1 [Example 132, 6-[5-(3-Methoxy-2-pyridyl)-[1,2,4]oxadiazol-3-yl]-N-methyl-N-phenyl-[1,3,5]triazine-2,4-diamine] | 2600 nM |  | IC50 (Nav 1.7 [3]): 397 nM |
| CN(c1ccccc1)c1nc(N)nc(-c2noc(-c3ccc([S+]([O-])CC(F)(F)F)nc3)n2)n1 (stereo not drawn) [Example 320, 2-N-methyl-2-N-phenyl-6-(5-{6-[(2,2,2-trifluoroethane)sulfinyl]pyridin-3-yl}-1,2,4-oxadiazol-3-yl)-1,3,5-triazine-2,4-diamine] |  | 276 nM |  |
| CN(c1ccccc1)c1nc(N)nc(-c2noc(N3CCC(OCC(F)(F)F)CC3)n2)n1 [Example 335, 2-N-methyl-2-N-phenyl-6-{5-[4-(2,2,2-trifluoroethoxy)piperidin-1-yl]-1,2,4-oxadiazol-3-yl}-1,3,5-triazine-2,4-diamine] |  | 701 nM |  |
| Cc1csc(-c2nc(-c3nc(N)nc(N(C)c4ccccc4)n3)no2)n1 [Example 341, 2-N-methyl-6-[5-(4-methyl-1,3-thiazol-2-yl)-1,2,4-oxadiazol-3-yl]-2-N-phenyl-1,3,5-triazine-2,4-diamine] |  | 1490 nM |  |
| Nc1nc(Nc2ccccc2)nc(-c2noc(-c3ncccc3F)n2)n1 [Example 346, 6-[5-(3-Fluoropyridin-2-yl)-1,2,4-oxadiazol-3-yl]-2-N-phenyl-1,3,5-triazine-2,4-diamine] |  | 337 nM |  |
| CN(c1nc(N)nc(-c2noc(-c3ccc(OCC(F)(F)F)nc3)n2)n1)c1cccc(F)c1F [Example 411, 2-N-(2,3-difluorophenyl)-2-N-methyl-6-{5-[6-(2,2,2-trifluoroethoxy)pyridin-3-yl]-1,2,4-oxadiazol-3-yl}-1,3,5-triazine-2,4-diamine] |  | 17 nM |  |
| CN(c1ccccc1)c1nc(N)nc(-c2noc(-c3ccnc(OCC(F)(F)F)c3)n2)n1 [Example 472, 2-N-methyl-2-N-phenyl-6-{5-[2-(2,2,2-trifluoroethoxy)pyridin-4-yl]-1,2,4-oxadiazol-3-yl}-1,3,5-triazine-2,4-diamine] |  | 900 nM |  |
| CN(c1ccccc1)c1nc(N)nc(-c2noc(-c3cccnc3OCC(F)(F)F)n2)n1 [Example 477, 2-N-methyl-2-N-phenyl-6-{5-[2-(2,2,2-trifluoroethoxy)pyridin-3-yl]-1,2,4-oxadiazol-3-yl}-1,3,5-triazine-2,4-diamine] |  | 172 nM |  |
| CN(c1ccccc1)c1nc(N)nc(-c2noc(N3CC(Oc4ccccc4)C3)n2)n1 [Example 489, 2-N-methyl-6-[5-(3-phenoxyazetidin-1-yl)-1,2,4-oxadiazol-3-yl]-2-N-phenyl-1,3,5-triazine-2,4-diamine] |  | 127 nM |  |
